Experiment [1] relates to cardiac endothelial cells. Nature of the experiment: collagen gel assay, transformation of cardiac endothelial cells to mesenchymal cells. The class given is cell-based. The conditions noted are these: Tβ4 at physiological concentrations. As to the method: Synthetic Tβ4 and an antibody to Tβ4 was provided by RegeneRx Biopharmaceuticals, Inc. (3 Bethesda Metro Center, Suite 700, Bethesda, Md. 20814) and were tested in a collagen gel assay to determine their effects on the Transformation of cardiac endothelial cells to mesenchymal cells. It is well established that development of heart valves and other cardiac tissue are formed by epithelial-mesenchymal transformation and that defects in this process can cause serious cardiovascular malformation and injury during development and throughout life. […] Transformation of atrioventricular endocardium into invasive mesenchyme is an aspect of the formation and maintenance of normal cardiac tissue and in the formation of heart valves.
Synthetic Tβ4 and an antibody to Tβ4 was provided by RegeneRx Biopharmaceuticals, Inc. (3 Bethesda Metro Center, Suite 700, Bethesda, Md. 20814) and were tested in a collagen gel assay to determine their effects on the Transformation of cardiac endothelial cells to mesenchymal cells. It is well established that development of heart valves and other cardiac tissue are formed by epithelial-mesenchymal transformation and that defects in this process can cause serious cardiovascular malformation and injury during development and throughout life. […]

A further experiment has as its system ILK. The experiment in a line: ILK localization, expression and activation (immunocytochemistry, Western). It counts as cell-based. As to the method: Because recruitment of ILK to the focal adhesion complex is important for its activation, the effects of thymosin β4 on ILK localization and expression were assayed. […] Because thymosin β4 sequesters the pool of G-actin monomers, the effects on ILK activation were dependent on thymosin β4's role in regulating the balance between polymerized F-actin and monomeric G-actin were tested. F-actin polymerization was inhibited using C3 transferase and also F-actin formation was promoted with an activated Rho, but neither intervention affected the ILK activation observed after treatment of COS1 or C2C 12 cells with thymosin β4.

Another experiment deals with T1, PINCH (Mus musculus, UniProt Q99JW4).
T1 construct: myc or FLAG (co-immunoprecipitation only); made in house; host or cells: T7 phage amplified in E. coli BLT5615 (ELISA); Cos and 10T1/2 cells transfected (co-IP)
T1 sequence (Q99JW4 whole entry): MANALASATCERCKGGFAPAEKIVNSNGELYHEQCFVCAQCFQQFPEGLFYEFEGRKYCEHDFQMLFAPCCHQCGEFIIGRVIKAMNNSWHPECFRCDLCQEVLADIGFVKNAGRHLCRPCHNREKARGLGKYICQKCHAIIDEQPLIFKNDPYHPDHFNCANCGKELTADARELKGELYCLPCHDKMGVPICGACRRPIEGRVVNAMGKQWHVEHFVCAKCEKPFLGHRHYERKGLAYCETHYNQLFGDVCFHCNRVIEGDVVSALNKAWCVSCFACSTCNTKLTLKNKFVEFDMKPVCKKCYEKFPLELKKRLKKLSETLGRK
The experiment in a line: phage display ELISA confirmation and coimmunoprecipitation with PINCH. The class given is binding. From the text:
(§1) To investigate the potential mechanisms through which thymosin β4 might be influencing cell migration and survival events, thymosin β4 interacting proteins were searched. The amino-terminus of […] was fused with affi-gel beads resulting in exposure of the carboxy-terminus that allowed identification of previously unknown interacting proteins but prohibited association with actin. An E9.5-12.5 mouse heart T7 phage cDNA library was synthesized and screened by phage display and thymosin β4-interacting clones were enriched and confirmed by ELISA. PINCH, a LIM domain protein, was most consistently isolated in this screen and interacted with thymosin β4 in the absence of actin (ELISA). PINCH and integrin linked kinase (ILK) interact directly with one another and indirectly with the actin cytoskeleton as part of a larger complex involved in cell-extracellular matrix interactions known as the focal adhesion complex. PINCH and ILK are required for cell motility and for cell survival, in part by promoting phosphorylation of the serine-threonine kinase Akt/protein kinase B, a central kinase in survival and growth signaling pathways. […] The PINCH interaction with thymosin β4 mapped to the fourth and fifth LIM domains of PINCH while the amino terminal ankryin domain of ILK was sufficient for thymosin β4 interaction. […]
(An ELISA detects its analyte on a solid surface through an enzyme-linked reagent.)

The target of experiment [2] is T2, integrin linked kinase (ILK) (Homo sapiens, UniProt Q13418).
T2 construct: expressed in transfected cells; host or cells: Cos and 10T1/2 cells
T2 sequence (Q13418 1-452): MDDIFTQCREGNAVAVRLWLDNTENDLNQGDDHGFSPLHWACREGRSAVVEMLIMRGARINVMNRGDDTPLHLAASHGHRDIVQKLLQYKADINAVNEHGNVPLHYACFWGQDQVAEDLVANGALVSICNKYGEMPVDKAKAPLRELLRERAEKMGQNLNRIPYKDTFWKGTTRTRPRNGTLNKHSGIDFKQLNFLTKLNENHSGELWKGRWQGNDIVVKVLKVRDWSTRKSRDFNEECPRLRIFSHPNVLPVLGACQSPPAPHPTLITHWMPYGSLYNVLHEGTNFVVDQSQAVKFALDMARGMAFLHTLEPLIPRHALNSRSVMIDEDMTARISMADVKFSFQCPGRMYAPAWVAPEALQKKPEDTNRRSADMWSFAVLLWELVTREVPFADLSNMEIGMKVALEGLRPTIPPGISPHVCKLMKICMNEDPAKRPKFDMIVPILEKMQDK
Nature of the experiment: coimmunoprecipitation with ILK. It counts as binding.
Source text: as §1

[3] abbreviates: plasmids transfected in cultured cells.

On to thymosin β4, for which, in experiment [1], the “transformation of endocardial cells to mesenchymal cells” value is on record as “markedly enhances”. Also, in the experiment on ILK (C2C12 cells), the “ILK protein levels by Western analysis” value was “modest increase” and the “total Akt protein” value is given as “unchanged”. For the same substance, the “phosphorylation of Akt (serine 473)” value with ILK (C2C12 cells, phospho-specific antibody) is “increased phosphorylation”. In addition, the “ILK detection by immunocytochemistry around the cell edges” value in the experiment on ILK (embryonic heart explants or C2C12 myoblasts, synthetic thymosin β4 10 ng/100 ul or expressing plasmid) is “markedly enhanced”. Also, the “interaction with PINCH in the absence of actin (ELISA)” value with PINCH (phage display clones, ELISA) is “interacted”. The “co-precipitation with PINCH” value with PINCH (setting [3]) was “co-precipitated”. Further, the “strength of interaction of ILK with thymosin β4” value in experiment [2] (common complex immunoprecipitation) is listed as “weaker than with PINCH”. Besides, the “co-precipitation with ILK” value in experiment [2] (setting [3]) was “co-precipitated”.
